From patent US20210177828A1, “TAM FAMILY KINASE /AND CSF1R KINASE INHIBITOR AND USE THEREOF” (Nanjing Transthera Biosciences Co., Ltd., priority 2018, published 2021)

Assays:
Tyro-3 (h) = molecular target: T1, Tyro-3 (h) (Homo sapiens, UniProt Q06418); experiment: Enzymatic activity assay, Tyro-3 (h), [γ-33P]-ATP filter assay; format: biochemical; details: 10 μM ATP, 40 min room temperature; read-out: Inhibitory activity IC50 Tyro-3(h)
T1 sequence (Q06418 41-890): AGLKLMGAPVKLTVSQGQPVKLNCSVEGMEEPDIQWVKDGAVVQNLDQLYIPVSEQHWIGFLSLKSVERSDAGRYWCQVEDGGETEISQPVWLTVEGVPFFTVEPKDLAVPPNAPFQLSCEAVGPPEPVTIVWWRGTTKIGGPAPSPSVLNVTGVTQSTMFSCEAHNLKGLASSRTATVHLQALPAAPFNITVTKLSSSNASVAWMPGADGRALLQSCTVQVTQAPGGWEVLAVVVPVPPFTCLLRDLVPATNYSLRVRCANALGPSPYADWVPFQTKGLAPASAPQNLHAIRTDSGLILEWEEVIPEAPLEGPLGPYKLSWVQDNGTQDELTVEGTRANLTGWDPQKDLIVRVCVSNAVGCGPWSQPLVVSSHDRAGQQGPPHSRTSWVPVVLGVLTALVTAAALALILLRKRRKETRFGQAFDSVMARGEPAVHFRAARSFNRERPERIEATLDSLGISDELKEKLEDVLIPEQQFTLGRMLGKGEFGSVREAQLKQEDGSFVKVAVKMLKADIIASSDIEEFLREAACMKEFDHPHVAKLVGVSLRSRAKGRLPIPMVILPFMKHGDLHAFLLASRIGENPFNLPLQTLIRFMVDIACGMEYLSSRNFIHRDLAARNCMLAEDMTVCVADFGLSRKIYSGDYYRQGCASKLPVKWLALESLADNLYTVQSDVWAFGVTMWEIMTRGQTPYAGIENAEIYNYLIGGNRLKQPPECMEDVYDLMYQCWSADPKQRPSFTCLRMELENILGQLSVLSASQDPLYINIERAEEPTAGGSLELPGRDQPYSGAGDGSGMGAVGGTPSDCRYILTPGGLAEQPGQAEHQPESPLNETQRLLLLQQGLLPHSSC
Procedure: Compounds were each dissolved in 100% DMSO to prepare stock solutions with a maximum concentration of 500 μM.
Compound working solutions (50×) were prepared by diluting a compound stock solution to a final concentration of 500, 150, 50, 15, 5, 1.5, 0.5, 0.15 and 0.05 μM.
An enzyme solution with a final concentration of 38 nM was prepared by dissolving Tyro3 (h) enzyme in a mixture of 8 mM MOPS (pH 7.0), 0.2 mM EDTA, 1 mM MnCl2 and 250 μM KVEKIGEGTYGVVYK. A Mg/ATP mixture of 10 mM magnesium acetate and 10 μM [γ-^33P]-ATP was used to activate the enzymatic reaction.
A compound working solution was added to a 384-well plate, with final concentrations of 10,000, 3,000, 1,000, 300, 100, 30, 10, 3 and 1 nM, and then different enzymatic reaction solutions prepared according to the above conditions were added. The reaction solutions were incubated at room temperature for 40 min, and then 0.5% phosphoric acid solutions were added to terminate the reaction. 10 μL of the reaction solution was added dropwise to P30 filter paper, washed 4 times with a 0.425% phosphoric acid solution and once with methanol, and then placed in a scintillation counter for detection. Gray analysis was performed on the results with Image J software, and IC50 values were calculated with GraphPad 5.0 software.

H1299 cell pMer = molecular target: T2, H1299 cell pMer (Homo sapiens, UniProt Q12866); experiment: Inhibitory activity on cell pMer, H1299 cells, Human Mer Mab stimulation, Western Blot; format: cell-based; details: Human Mer Mab 200 ng/mL
T2 construct: endogenous in cells; host or cells: H1299
T2 sequence (Q12866 21-999): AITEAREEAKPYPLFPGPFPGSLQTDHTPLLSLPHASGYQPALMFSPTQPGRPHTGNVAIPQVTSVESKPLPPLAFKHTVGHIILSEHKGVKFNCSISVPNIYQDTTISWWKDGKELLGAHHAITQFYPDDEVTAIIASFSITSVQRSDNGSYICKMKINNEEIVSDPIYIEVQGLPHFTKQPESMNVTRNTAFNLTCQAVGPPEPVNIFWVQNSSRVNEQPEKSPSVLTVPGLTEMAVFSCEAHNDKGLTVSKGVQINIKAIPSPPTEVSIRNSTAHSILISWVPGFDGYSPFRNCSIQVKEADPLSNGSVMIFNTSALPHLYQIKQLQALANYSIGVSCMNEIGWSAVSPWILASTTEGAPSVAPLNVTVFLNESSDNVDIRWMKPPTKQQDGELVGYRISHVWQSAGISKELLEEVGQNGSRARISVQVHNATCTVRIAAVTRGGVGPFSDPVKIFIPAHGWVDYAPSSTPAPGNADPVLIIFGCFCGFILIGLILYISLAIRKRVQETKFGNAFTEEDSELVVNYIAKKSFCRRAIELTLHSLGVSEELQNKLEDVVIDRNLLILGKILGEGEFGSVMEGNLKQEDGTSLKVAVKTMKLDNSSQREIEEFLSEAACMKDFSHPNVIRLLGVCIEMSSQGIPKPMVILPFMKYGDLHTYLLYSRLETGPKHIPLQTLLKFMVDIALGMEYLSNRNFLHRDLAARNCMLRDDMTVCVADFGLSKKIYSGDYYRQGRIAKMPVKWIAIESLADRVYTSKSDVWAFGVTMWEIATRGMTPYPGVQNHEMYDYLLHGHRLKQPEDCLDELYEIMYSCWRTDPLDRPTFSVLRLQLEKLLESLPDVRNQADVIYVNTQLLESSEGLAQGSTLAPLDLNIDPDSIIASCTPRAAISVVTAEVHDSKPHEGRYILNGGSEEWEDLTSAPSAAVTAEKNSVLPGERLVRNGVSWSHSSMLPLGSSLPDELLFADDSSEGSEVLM
Procedure: H1299 is anon-small cell lung cancer cell.
H1299 cells were inoculated to a 6-well plate (containing 10% FBS 1640 medium, 5×10^5 cells per well) and adherently cultivated at 37° C., and 5% CO2 for 18 hrs. The cells were starved overnight, and then compound solutions with different concentrations were added. The compounds had final concentrations of 0.35, 1.1, 3.3 and 10 nM. […] There was a medium containing 1‰DMSO in the negative control well. The cells were incubated at 37° C., and 5% CO2 for 60 min, and then Human Mer Mab (R&D, final concentration: 200 ng/mL) was added to each well. The cells were further incubated for 60 min, and then the total protein of the cells was extracted for Western Blot experiment. Gray analysis was performed on the results with Image J software, and IC50 values were calculated with GraphPad 5.0 software. The inhibitory activities of the compounds on cell pMer were detected.

IC50 (Tyro-3 (h)) [nM]	IC50 (H1299 cell pMer) [nM]	SMILES
35	1.1	COc1cc2nccc(Oc3ccc(NC(=O)c4cc(CC5CCOCC5)cn(-c5ccc(F)cc5)c4=O)nc3)c2cc1OC [Compound 32, N-(5-((6,7-dimethoxyquinolin-4-yl)oxy)pyridin-2-yl)-1-(4-fluorophenyl)-2-oxo-5-((tetrahydro-2H-pyran-4-yl)methy 1)-1,2-dihydropyridin-3-carboxamide]
19	–	COc1cc2nccc(Oc3ccc(NC(=O)c4nn(C5CCOCC5)cc(-c5ccc(F)cc5)c4=O)nc3)c2cc1OC [Compound 34, N-(5-((6,7-dimethoxyquinolin-4-yl)oxy)pyridin-2-yl)-5-(4-fluorophenyl)-4-oxo-1-(tetrahydro-2H-pyran-4-yl)-1,4-dihydropyridazin-3-carboxamide]
–	< 1.1	COc1cc2nccc(Oc3ccc(NC(=O)c4cn(C5CCOCC5)cc(-c5ccc(F)cc5)c4=O)nc3)c2cc1OC [Compound 27, N-(5-((6,7-dimethoxyquinolin-4-yl)oxy)pyridin-2-yl)-5-(4-fluorophenyl)-4-oxo-1-(tetrahydro-2H-pyran-4-yl)-1,4-dihydropyridin-3-carboxamide]
318	–	Cc1ccc(-c2cn(C3CCOCC3)nc(C(=O)Nc3ccc(Oc4ccnc5cc6c(cc45)OCCO6)cn3)c2=O)cc1 [Compound 30, N-(5-((2,3-dihydro-[1,4]dioxino[2,3-g]quinolin-9-yl)oxy)pyridin-2-yl)-4-oxo-1-(tetrahydro-2H-pyran-4-yl)-5-(p-tolyl)-1,4-dihydropyridazin-3-carboxamide]
23	–	COc1cc2nccc(Oc3cnc(NC(=O)c4nn(C5CCOCC5)cc(-c5ccc(F)cc5)c4=O)nc3)c2cc1OC [Compound 33, N-(5-((6,7-dimethoxyquinolin-4-yl)oxy)pyrimidin-2-yl)-5-(4-fluorophenyl)-4-oxo-1-(tetrahydro-2H-pyran-4-yl)-1,4-dihydropyridazin-3-carboxamide]
321	–	Cc1ccc(-c2cn(C3CCOCC3)nc(C(=O)Nc3ccc(Oc4ccnc5cc6c(cc45)OCO6)cn3)c2=O)cc1 [Compound 29, N-(5-([1,3]dioxolo[4,5-g]quinolin-8-yloxy)pyridin-2-yl)-4-oxo-1-(tetrahydro-2H-pyran-4-yl)-5-(p-tolyl)-1,4-dihydropyridazin-3-carboxamide]
48	–	COc1cc2nccc(Oc3ccc(NC(=O)c4cc(CC5CCOCC5)cn(-c5ccc(C)cc5)c4=O)nc3)c2cc1OC [Compound 26, N-(5-((6,7-dimethoxyquinolin-4-yl)oxy)pyridin-2-yl)-oxo-5-((tetrahydro-2H-pyran-4-yl)methyl)-1-(p-tolyl)-1,2-dihydropyridin-3-carboxamide]

Further lines, the compound ahead of its results:

SMILES	IC50 (Tyro-3 (h)) [nM]	IC50 (H1299 cell pMer) [nM]
COc1cc2nccc(Oc3ccc(NC(=O)c4cn(CC5CCOCC5)cc(-c5ccc(C)cc5)c4=O)nc3)c2cc1OC [Compound 1, N-(5-((6,7-dimethoxyquinolin-4-yl)oxy)pyridin-2-yl)-4-oxo-1-((tetrahydro-2H-pyran-4-yl)methyl)-5-(p-tolyl)-1,4-dihydropyridin-3-carboxamide]	37	1.1 to 3.3
COc1cc2nccc(Oc3ccc(NC(=O)c4cn(CC5CC[S+]([O-])CC5)cc(-c5ccc(C)cc5)c4=O)nc3)c2cc1OC (stereo not shown) [Compound 8, N-(5-((6,7-dimethoxyquinolin-4-yl)oxy)pyridin-2-yl)-1-((1-oxotetrahydro-2H-thiopyran-4-yl)methyl)-4-oxo-5-(p-tolyl)-1,4-dihydropyridin-3-carboxamide]	117	–
COc1cc2nccc(Oc3cnc(NC(=O)c4cn(CC5CCOCC5)cc(-c5ccc(C)cc5)c4=O)nc3)c2cc1OC [Compound 4, N-(5-((6,7-dimethoxyquinolin-4-yl)oxy)pyrimidin-2-yl)-4-oxo-1-((tetrahydro-2H-pyran-4-yl)methyl)-5-(p-tolyl)-1,4-dihydropyridin-3-carboxamide]	178	1.1
COc1cc2nccc(Oc3ccc(NC(=O)c4nn(C5CCOCC5)cc(-c5ccc(C)cc5)c4=O)nc3)c2cc1OC [Compound 17, N-(5-((6,7-dimethoxyquinolin-4-yl)oxy)pyridin-2-yl)-4-oxo-1-(tetrahydro-2H-pyran-4-yl)-5-(p-tolyl)-1,4-dihydropyridazin-3-carboxamide]	14	< 0.35
COc1cc2nccc(Oc3ccc(NC(=O)c4cn(CC5CCOCC5)c5ccccc5c4=O)nc3)c2cc1OC [Compound 25, N-(5-((6,7-dimethoxyquinolin-4-yl)oxy)pyridin-2-yl)-4-oxo-1-((tetrahydro-2H-pyran-4-yl)methyl)-1,4-dihydroquinolin-3-carboxamide]	205	–
COc1cc2nccc(Oc3ccc(NC(=O)c4cc(-c5ccc(C)cc5)cn(CC5CCOCC5)c4=O)nc3)c2cc1OC [Compound 13, N-(5-((6,7-dimethoxyquinolin-4-yl)oxy)pyridin 2yl)-2-oxo-1-((tetrahydro-2H-pyran-4-yl)methyl)-5-(p-tolyl)-1,2-dihydropyridin-3-carboxamide]	94	–
COc1cc2nccc(Oc3ccc(NC(=O)c4cn(CC5CCS(=O)(=O)CC5)cc(-c5ccc(C)cc5)c4=O)nc3)c2cc1OC [Compound 7, N-(5-((6,7-dimethoxyquinolin-4-yl)oxy)pyridin-2-yl)-1-((1,1-dioxotetrahydro-2H-thiopyran-4-yl)methyl)-4-oxo-5-(p-tolyl)-1,4-dihydropyridin-3-carboxamide]	192	–
COc1cc2nccc(Oc3ccc(NC(=O)c4cn(CC5CCOCC5)cc(-c5ccc(C)cc5)c4=O)nn3)c2cc1OC [Compound 24, N-(6-((6,7-dimethoxyquinolin-4-yl)oxy)pyridazin-3-yl)-4-oxo-1-((tetrahydro-2H-pyran-4-yl)methyl)-5-(p-tolyl)-1,4-dihydropyridin-3-carboxamide]	212	–
